Each block holds one compound with its values, some of them ahead of it.
Assays:
Histone deacetylase 1 [1] = target: T1, Histone deacetylase 1 (Homo sapiens, UniProt Q13547); assay: Inhibition of HDAC1 (unknown origin) by fluorescence based assay
[2] = target: T2, Bromodomain-containing protein 4 (Homo sapiens, UniProt O60885); assay: Inhibition of BRD4 BD1 (unknown origin) incubated for 15 mins by TR-FRET analysis
[3] = target: T2, Bromodomain-containing protein 4; assay: Inhibition of BRD4 BD2 (unknown origin) by TR-FRET assay
[4] = target: T3, Protein deacetylase HDAC6 (Homo sapiens, UniProt Q9UBN7); assay: Inhibition of HDAC6 (unknown origin)
T3 sequence (Q9UBN7 whole entry): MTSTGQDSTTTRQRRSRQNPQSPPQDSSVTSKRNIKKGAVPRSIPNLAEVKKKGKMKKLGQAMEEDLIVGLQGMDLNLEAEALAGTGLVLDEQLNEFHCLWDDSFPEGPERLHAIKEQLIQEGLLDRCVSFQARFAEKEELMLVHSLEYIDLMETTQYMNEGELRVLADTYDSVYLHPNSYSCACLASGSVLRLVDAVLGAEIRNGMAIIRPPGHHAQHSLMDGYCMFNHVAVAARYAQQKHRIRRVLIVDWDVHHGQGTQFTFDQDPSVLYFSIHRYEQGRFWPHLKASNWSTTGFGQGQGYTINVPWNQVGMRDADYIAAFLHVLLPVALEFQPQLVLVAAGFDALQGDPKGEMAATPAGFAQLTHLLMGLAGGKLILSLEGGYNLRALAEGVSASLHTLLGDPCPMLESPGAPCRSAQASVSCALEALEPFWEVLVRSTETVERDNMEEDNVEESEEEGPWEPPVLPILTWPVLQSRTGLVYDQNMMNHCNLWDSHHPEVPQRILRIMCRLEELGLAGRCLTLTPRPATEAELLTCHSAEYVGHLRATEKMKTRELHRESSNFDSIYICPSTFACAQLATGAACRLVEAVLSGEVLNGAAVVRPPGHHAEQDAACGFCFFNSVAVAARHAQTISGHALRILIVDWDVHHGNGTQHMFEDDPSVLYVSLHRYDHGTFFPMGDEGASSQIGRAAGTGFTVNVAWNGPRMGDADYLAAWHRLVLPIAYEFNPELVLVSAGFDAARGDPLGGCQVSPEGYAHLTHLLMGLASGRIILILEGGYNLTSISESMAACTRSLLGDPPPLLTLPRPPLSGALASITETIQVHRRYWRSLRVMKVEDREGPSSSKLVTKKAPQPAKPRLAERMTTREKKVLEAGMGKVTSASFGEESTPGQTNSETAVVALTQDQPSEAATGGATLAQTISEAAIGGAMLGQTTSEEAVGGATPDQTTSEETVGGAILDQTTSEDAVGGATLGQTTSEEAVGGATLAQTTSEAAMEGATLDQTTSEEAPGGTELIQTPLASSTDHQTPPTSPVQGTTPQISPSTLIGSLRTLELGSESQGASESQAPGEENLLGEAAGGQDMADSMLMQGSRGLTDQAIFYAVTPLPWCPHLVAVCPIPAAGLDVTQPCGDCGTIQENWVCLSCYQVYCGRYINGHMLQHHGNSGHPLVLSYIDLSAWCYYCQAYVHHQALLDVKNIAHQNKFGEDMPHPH

[5] = target: Cyclin-dependent kinase 4 (Homo sapiens, UniProt P11802); assay: Inhibition of CDK4 (unknown origin)
Histone deacetylase 8 [6] = target: T4, Histone deacetylase 8 (Homo sapiens, UniProt Q9BY41); assay: Inhibition of human HDAC8 using Boc-Lys (Ac)-AMC as substrate incubated for 60 mins by fluorimetric assay
T4 sequence (Q9BY41 whole entry): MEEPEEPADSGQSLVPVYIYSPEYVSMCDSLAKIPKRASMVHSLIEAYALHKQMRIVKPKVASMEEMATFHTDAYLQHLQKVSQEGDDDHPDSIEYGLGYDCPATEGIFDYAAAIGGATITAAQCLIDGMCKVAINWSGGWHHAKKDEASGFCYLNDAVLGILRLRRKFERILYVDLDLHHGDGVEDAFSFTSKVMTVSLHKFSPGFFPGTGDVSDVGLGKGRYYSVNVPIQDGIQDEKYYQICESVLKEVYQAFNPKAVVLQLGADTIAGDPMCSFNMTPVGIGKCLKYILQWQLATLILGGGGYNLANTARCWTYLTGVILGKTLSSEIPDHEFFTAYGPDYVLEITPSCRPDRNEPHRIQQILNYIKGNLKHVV

[7] = target: T3, Protein deacetylase HDAC6; assay: Inhibition of human recombinant HDAC6 using fluorogenic HDAC substrate by fluorescence assay
Histone deacetylase 1 [8] = target: T1, Histone deacetylase 1; assay: Inhibition of HDAC1 (unknown origin) using ZMAL (Z-Lys(Ac)-AMC as fluorogenic substrate pre-incubated for 30 mins measured for 1 hr by fluorescence based analysis
[9] = target: von Hippel-Lindau disease tumor suppressor/Histone deacetylase 2 (Homo sapiens, UniProt Q92769+P40337); assay: PROTAC activity at VHL/HDAC2 in human ES1 cells assessed as HDAC2 degradation by fluorescence based assay; format: cell-based
Chain of von Hippel-Lindau disease tumor suppressor/Histone deacetylase 2 (Q92769 whole entry): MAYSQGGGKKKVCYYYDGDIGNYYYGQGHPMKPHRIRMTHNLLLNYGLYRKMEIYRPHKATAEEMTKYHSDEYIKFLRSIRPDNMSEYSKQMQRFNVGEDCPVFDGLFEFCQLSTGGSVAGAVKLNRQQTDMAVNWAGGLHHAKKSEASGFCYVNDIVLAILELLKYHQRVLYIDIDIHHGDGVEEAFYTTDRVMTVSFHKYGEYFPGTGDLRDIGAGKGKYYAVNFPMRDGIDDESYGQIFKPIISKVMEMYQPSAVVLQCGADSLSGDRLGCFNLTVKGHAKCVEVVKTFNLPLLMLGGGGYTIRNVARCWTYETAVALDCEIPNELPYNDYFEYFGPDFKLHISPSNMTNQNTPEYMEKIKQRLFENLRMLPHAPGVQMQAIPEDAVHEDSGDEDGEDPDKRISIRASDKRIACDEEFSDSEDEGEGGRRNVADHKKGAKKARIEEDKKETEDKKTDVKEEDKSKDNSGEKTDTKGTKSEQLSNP
Chain of von Hippel-Lindau disease tumor suppressor/Histone deacetylase 2 (P40337 whole entry): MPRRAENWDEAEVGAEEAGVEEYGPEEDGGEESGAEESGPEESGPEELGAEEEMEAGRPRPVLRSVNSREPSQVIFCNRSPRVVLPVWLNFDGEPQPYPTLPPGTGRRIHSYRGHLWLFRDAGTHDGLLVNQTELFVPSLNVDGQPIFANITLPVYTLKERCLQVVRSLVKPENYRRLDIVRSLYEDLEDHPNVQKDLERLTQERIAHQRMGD

[10] = target: von Hippel-Lindau disease tumor suppressor/Histone deacetylase 1 (Homo sapiens, UniProt Q13547+P40337); assay: PROTAC activity at VHL/HDAC1 in human ES1 cells assessed as HDAC1 degradation by fluorescence based assay; format: cell-based
Chain of von Hippel-Lindau disease tumor suppressor/Histone deacetylase 1 (Q13547 whole entry): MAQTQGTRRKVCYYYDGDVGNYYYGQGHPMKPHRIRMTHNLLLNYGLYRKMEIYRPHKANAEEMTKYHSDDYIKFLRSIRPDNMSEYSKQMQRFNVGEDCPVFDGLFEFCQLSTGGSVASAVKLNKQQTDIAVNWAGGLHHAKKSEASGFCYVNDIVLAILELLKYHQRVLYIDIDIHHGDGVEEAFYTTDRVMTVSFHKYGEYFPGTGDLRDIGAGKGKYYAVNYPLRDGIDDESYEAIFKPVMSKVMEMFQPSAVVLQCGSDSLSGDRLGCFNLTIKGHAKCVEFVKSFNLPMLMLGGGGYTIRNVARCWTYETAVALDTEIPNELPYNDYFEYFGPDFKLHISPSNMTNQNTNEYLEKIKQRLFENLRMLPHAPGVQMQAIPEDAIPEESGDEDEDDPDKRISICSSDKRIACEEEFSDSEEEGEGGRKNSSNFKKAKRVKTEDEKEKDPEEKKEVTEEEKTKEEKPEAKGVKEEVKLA
Chain of von Hippel-Lindau disease tumor suppressor/Histone deacetylase 1 (P40337 whole entry): as the sequence (P40337 whole entry) above

[11] = target: T5, Protein cereblon/Histone deacetylase 8 (Homo sapiens, UniProt Q9BY41+Q96SW2); assay: PROTAC activity at HDAC8/CRBN in human HCT-116 cells assessed as degradation of HDAC8 measured after 10 hrs in presence of E3 ligase inhibitor by Western blot analysis; format: cell-based
T5 sequence (Q96SW2 whole entry, one chain of several): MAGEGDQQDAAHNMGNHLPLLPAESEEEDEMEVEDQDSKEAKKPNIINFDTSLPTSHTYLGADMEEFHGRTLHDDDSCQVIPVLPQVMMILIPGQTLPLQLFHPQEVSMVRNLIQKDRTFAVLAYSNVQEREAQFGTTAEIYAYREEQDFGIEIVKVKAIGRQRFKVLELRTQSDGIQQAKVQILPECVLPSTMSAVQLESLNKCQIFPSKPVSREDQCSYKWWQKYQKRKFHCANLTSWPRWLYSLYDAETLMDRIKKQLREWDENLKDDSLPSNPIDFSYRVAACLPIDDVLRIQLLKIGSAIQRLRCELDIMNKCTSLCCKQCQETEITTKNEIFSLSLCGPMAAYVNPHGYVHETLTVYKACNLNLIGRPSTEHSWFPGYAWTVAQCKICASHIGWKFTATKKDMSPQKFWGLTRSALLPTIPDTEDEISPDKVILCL

[12] = target: T6, Vascular endothelial growth factor receptor 2 (Homo sapiens, UniProt P35968); assay: Inhibition of VEGFR2 (unknown origin) expressed in baculovirus infected insect cells using biotinylated-GGGGQDGKDYIVLPI peptide as substrate incubated for 1 to 4 hrs by TR-FRET assay
T6 sequence (P35968 whole entry): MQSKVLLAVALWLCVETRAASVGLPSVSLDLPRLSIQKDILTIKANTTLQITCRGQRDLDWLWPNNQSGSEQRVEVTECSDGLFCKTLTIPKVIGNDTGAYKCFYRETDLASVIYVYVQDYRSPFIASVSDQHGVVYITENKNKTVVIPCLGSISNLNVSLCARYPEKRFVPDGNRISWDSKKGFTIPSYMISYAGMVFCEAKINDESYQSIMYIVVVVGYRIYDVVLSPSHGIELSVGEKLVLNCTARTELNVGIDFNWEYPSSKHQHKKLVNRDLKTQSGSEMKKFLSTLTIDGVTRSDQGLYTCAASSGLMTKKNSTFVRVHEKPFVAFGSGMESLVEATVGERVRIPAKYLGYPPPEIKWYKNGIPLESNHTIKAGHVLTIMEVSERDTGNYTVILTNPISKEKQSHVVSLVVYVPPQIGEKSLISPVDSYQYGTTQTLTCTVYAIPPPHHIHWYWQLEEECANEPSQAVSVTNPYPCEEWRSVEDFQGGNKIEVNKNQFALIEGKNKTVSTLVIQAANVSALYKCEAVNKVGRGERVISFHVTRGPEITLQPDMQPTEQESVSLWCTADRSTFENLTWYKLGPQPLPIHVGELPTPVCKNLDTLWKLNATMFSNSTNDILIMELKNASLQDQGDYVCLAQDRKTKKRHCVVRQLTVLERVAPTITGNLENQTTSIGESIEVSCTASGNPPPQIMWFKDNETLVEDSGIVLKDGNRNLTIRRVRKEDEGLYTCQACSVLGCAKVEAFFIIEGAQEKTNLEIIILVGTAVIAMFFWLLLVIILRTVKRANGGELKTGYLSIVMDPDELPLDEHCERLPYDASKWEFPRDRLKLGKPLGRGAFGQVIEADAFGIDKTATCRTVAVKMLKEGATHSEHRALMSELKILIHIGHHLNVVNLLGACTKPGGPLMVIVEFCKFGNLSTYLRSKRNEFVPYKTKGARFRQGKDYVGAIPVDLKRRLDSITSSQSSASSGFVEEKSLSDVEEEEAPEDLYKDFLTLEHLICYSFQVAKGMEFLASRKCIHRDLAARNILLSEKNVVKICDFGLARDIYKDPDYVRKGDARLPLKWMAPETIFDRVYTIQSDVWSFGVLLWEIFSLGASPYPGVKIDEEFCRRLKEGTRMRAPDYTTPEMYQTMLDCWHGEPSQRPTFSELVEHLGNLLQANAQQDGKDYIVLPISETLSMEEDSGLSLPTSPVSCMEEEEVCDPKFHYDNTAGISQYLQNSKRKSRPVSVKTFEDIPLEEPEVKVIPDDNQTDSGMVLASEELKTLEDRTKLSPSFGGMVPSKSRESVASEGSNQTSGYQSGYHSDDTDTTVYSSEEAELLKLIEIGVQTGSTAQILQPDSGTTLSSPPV

[13] = Metabolic stability in human Hepatocyte assessed as half life by LC-MS/MS analysis; format: ADME, cell-based; conditions: hepatocytes
Histone deacetylase 1 [14] = target: T1, Histone deacetylase 1; assay: Inhibition of HDAC1 (unknown origin)
[15] = target: T3, Protein deacetylase HDAC6; assay: Inhibition of HDAC6 (unknown origin) using Ac-peptide as substrate preincubated for 15 mins followed by substrate addition and measured after 1 hr by fluorescence based assay
Histone deacetylase 8 [16] = target: T4, Histone deacetylase 8; assay: Inhibition of human recombinant His-tagged HDAC8 expressed in Escherichia coli BL21 (DE3) using ArgHisLysLys(Ac) as substrate pre-incubated for 1 hr and measured after 1 hr by fluorescence based analysis
[17] = target: T6, Vascular endothelial growth factor receptor 2; assay: Inhibition of VEGFR2 (unknown origin) using poly (Glu,Tyr) 4:1 as substrate measured after 1 hr in presence of ATP by spectrophotometric analysis
[18] = target: Vascular endothelial growth factor receptor 1 (Homo sapiens, UniProt P17948); assay: Inhibition of VEGFR1 (unknown origin)
[19] = target: T3, Protein deacetylase HDAC6; assay: Inhibition of HDAC6 (unknown origin) using biotinylated histone H3 KAc peptide (1 to 21 residues) as substrate by HTRF assay
Histone deacetylase 1 [20] = target: T1, Histone deacetylase 1; assay: Inhibition of human recombinant HDAC1 using fluorogenic substrate incubated for 30 mins by fluorescence based assay
Histone deacetylase 3 [21] = target: T7, Histone deacetylase 3 (Homo sapiens, UniProt O15379); assay: Inhibition of HDAC3 (unknown origin) at 10 uM relative to control
T7 sequence (O15379 whole entry): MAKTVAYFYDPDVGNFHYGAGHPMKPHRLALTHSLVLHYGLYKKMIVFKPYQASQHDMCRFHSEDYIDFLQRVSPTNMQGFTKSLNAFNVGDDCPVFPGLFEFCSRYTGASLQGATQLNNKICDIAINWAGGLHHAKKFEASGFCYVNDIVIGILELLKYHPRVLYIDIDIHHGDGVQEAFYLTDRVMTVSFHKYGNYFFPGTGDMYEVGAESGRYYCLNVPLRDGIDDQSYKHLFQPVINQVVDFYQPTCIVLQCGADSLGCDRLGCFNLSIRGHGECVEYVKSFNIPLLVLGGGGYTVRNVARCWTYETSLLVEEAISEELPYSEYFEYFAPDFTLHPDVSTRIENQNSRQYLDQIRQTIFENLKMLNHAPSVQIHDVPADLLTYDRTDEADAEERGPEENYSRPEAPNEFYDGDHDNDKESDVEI

Homo sapiens = organism: Homo sapiens; assay: Inhibition of Topoisomerase 2 (unknown origin) at 50 to 100 uM incubated for 15 mins in the presence of ATP by electrophoretic analysis; conditions: dose 50-100 µM
[22] = target: T5, Protein cereblon/Histone deacetylase 8; assay: PROTAC activity at HDAC8/CRBN in human HCT-116 cells assessed as degradation of HDAC8 by Western blot analysis; format: cell-based
[23] = target: von Hippel-Lindau disease tumor suppressor/Protein deacetylase HDAC6 (Homo sapiens, UniProt Q9UBN7+P40337); assay: Protac activity at VHL/HDAC6 in human MDA-MB-468 cells assessed as HDAC6 degradation measured after 14 hrs by Western blot analysis; format: cell-based
Chain of von Hippel-Lindau disease tumor suppressor/Protein deacetylase HDAC6 (P40337 whole entry, one chain of several): as the sequence (P40337 whole entry) above

Histone deacetylase 3 [24] = target: T7, Histone deacetylase 3; assay: Inhibition of HDAC3 (unknown origin)
Histone deacetylase 1 [25] = target: T1, Histone deacetylase 1; assay: Inhibition of human recombinant HDAC1 using Ac-RHKK(Acetyl)-AMC peptide as fluorogenic substrate pre-incubated for 30 mins followed by substrate addition and measured for 60 mins by fluorescence based analysis
Histone deacetylase 8 [26] = target: T4, Histone deacetylase 8; assay: Inhibition of HDAC8 (unknown origin) using Fluoro-Substrate Peptide as substrate by fluorescence based assay
Histone deacetylase 2 = Histone deacetylase 2 (Homo sapiens, UniProt Q92769); assay: Inhibition of human recombinant HDAC2 using Ac-RHKK(Acetyl)-AMC peptide as fluorogenic substrate pre-incubated for 30 mins followed by substrate addition and measured for 60 mins by fluorescence based analysis
Chain of Histone deacetylase 2 (Q92769 whole entry): as the sequence (Q92769 whole entry) above

Histone deacetylase 3 [27] = target: T7, Histone deacetylase 3; assay: Inhibition of HDAC3 (unknown origin) using biotinylated histone H3 KAc peptide as substrate pretreated with compound for 1 hrs followed by substrate addition measured after 1 hrs by microplate reader analysis by HTRF assay
[28] = target: Protein cereblon/Histone deacetylase 3 (Homo sapiens, UniProt O15379+Q96SW2); assay: Protac activity at CRBN/HDAC3 in human MDA-MB-468 cells assessed as HDAC3 degradation measured after 14 hrs by Western blot analysis; format: cell-based

T1 sequence (Q13547 whole entry): as the sequence (Q13547 whole entry) above

Compound: Cc1sc2c(c1C)C(c1ccc(Cl)cc1)=N[C@@H](CC(=O)Nc1ccc(C(=O)Nc3ccccc3[N+](=O)[O-])cc1)c1nnc(C)n1-2
IC50 (Histone deacetylase 1 [1]): 290 nM | IC50 [2]: 720 nM | IC50 [3]: 74 nM

Compound: O=C(CCCCCCN1CCN(c2ccc(Nc3ncc(F)c(-c4cn(C5CCCC5)nn4)n3)cc2)CC1)NO
IC50 [5]: 23 nM

Compound: O=C(COc1ccc2c(c1)OC1(CCN(Cc3cc(Cl)cc(Cl)c3)CC1)CC2=O)NO
IC50 (Histone deacetylase 8 [6]): 8000 nM | IC50 [7]: 80 nM

Compound: Cc1ccccc1/C=C/C(=O)Nc1ccc(C(=O)NS(=O)(=O)c2ccc(NCCCCCCC(=O)NO)c([N+](=O)[O-])c2)c(Oc2ccccc2)c1
IC50 [7]: 3 nM | IC50 (Histone deacetylase 1 [8]): 102 nM

Compound: CCCNNC(=O)c1ccc(-c2ccc(NC(=O)CCCCCCC(=O)N[C@H](C(=O)N3C[C@H](O)C[C@H]3C(=O)N[C@@H](C)c3ccc(-c4scnc4C)cc3)C(C)(C)C)cc2)cc1
DC50 [9]: 2000 nM | DC50 [10]: 650 nM

Compound: Cc1ncsc1-c1ccc(CNC(=O)[C@@H]2C[C@@H](O)CN2C(=O)[C@@H](NC(=O)CCCCCCCCCCC(=O)Nc2ccc(C(=O)Nc3ccccc3N)cc2)C(C)(C)C)cc1
DC50 [10]: 17000 nM

Compound: COc1ccc(C(=O)NO)cc1NCc1ccc(OCc2cn(CCCCCNc3cccc4c3C(=O)N(C3CCC(=O)NC3=O)C4=O)nn2)cc1 (configuration not stated)
DC50 [11]: 250 nM

Compound: CCCNNC(=O)c1ccc(Nc2nccc(N(C)c3ccc4c(C)n(C)nc4c3)n2)cc1
IC50 [12]: 25 nM | half-life [13]: < 15 min | IC50 (Histone deacetylase 1 [14]): 420 nM

Compound: O=C1CCC(N2C(=O)c3cccc(NCCCCCCCCCCCNC(=O)Nc4cccc(SCc5cn(-c6cccc(C(=O)NO)c6)nn5)c4)c3C2=O)C(=O)N1 (configuration not stated)
DC50 [22]: 53 nM

Compound: Cc1ncsc1-c1ccc([C@H](C)NC(=O)[C@@H]2C[C@@H](O)CN2C(=O)[C@@H](NC(=O)COCCOCCOCC(=O)NCc2cccc(CNc3ncc(-c4nnc(C(F)F)o4)cn3)c2)C(C)(C)C)cc1
DC50 [23]: 686 nM

Compound: COc1ccc(-c2ccc3c(NC(=O)CCCCCCC(=O)NO)n[nH]c3c2)cc1
IC50 (Histone deacetylase 1 [25]): 2 nM | IC50 (Histone deacetylase 8 [26]): 4 nM | IC50 (Histone deacetylase 2): 4 nM

Compound: O=C(CCCCCCNC(=O)c1ccc(NC(=O)COCCOCCNC(=O)COc2cccc3c2C(=O)N(C2CCC(=O)NC2=O)C3=O)cc1)NO (configuration not stated)
DC50 [9]: 248 nM | DC50 [10]: 174 nM | DC50 [23]: 27 nM | DC50 [28]: 139 nM

Compound: O=C(COc1ccc2c(c1)OC1(CCN(Cc3cc(F)cc(F)c3)CC1)CC2=O)NO
IC50 (Histone deacetylase 8 [6]): 9000 nM | IC50 [7]: 80 nM

Other lines, results leading:

IC50 [4]: 130 nM
Compound: O=C(CS)Nc1ccc(Cn2c3c(c4ccccc42)CS(=O)(=O)CC3)cc1

IC50 [7]: 15 nM | IC50 (Histone deacetylase 1 [8]): 742 nM
Compound: O=C(Cc1ccc(C(=O)NO)cc1)Nc1ccc2ncnc(Nc3ccc(Br)c(F)c3)c2c1

IC50 [15]: > 50 nM
Compound: CCCNNC(=O)/C=C/c1ccc(CNCCc2c(C)[nH]c3ccccc23)cc1

IC50 [7]: 73 nM | IC50 (Histone deacetylase 1 [8]): 2000 nM
Compound: CN(c1ccccc1)c1ncc(NC(=O)CS)cn1

IC50 (Histone deacetylase 8 [16]): 2000 nM
Compound: O=C(CCCN1CCN(C(=O)Nc2ccnc3ccccc23)CC1)NO

half-life [13]: < 15 min | IC50 [17]: 16 nM | IC50 [18]: 18 nM | IC50 [19]: 94 nM | IC50 (Histone deacetylase 1 [20]): 120 nM
Compound: Cc1c2ccc(N(C)c3ccnc(Nc4ccc(NC(=O)CCCCCCC(=O)NO)cc4)n3)cc2nn1C

inhibition (Histone deacetylase 3 [21]): 88% | inhibition (Homo sapiens): 82.1%
Compound: O=C(/C=C/c1ccc(CSc2nc3[nH]ncc3c(=O)n2-c2ccccc2)cc1)NO

IC50 (Histone deacetylase 3 [24]): 560 nM
Compound: Nc1ccccc1NC(=O)Cc1ccc2ncccc2c1

IC50 (Histone deacetylase 3 [27]): 2000 nM
Compound: O=C(Cc1ccc2ncccc2c1)Nc1ccccc1O

Source: ChEMBL document CHEMBL5543060, “Technologies of targeting histone deacetylase in drug discovery: Current progress and emerging prospects” (Eur J Med Chem, 2023)
